# Entries after “also recorded” stand apart in the source; their conditions may differ. Ends that are not written are not given here.
# What was measured:
# IL-6 = assay: Plasma cytokine level, bleomycin treatment model; type: in vivo, mouse; conditions: 24 hours after final administration
# [1] = test system: phospho-Thr^334-MAPKAPK2 (activated MK2); assay: Activated MK2 immunostaining of lung sections, bleomycin treatment model; type: in vivo, C57-BL/6 mice; conditions: day 14 to 28
# Text: Briefly, C57-BL/6 mice were subjected to bleomycin injury at day 0. […] Formalin-fixed lung tissue sections were immunostained against phospho-Thr^334 MK2. Control staining was with biotinylated secondary IgG antibody. Streptavidin-conjugated horseradish peroxidase was used with 3,3′-diaminobenzidene as substrate and nuclei was counterstained with hematoxylin.
# [2] = test system: alpha-smooth muscle actin (α-SMA); assay: α-SMA immunostaining of lung sections, bleomycin treatment model; type: in vivo, C57-BL/6 mice; conditions: day 14 through 28
# Text: C57-BL/6 mice were subjected to bleomycin injury at day 0. […] Formalin-fixed lung tissue sections were immunostained against α-SMA. Control staining was with biotinylated secondary IgG antibody. Streptavidin-conjugated horseradish peroxidase was used with 3,3′-diaminobenzidene as substrate and nuclei was counterstained with hematoxylin. Original magnifications: 20×
# MAPKAP-K2 (h) = MAPKAP-K2 (h) (Homo sapiens, UniProt P49137); assay: Kinase Profiling Assay; type: biochemical; conditions: read-out: inhibition of kinase activity of MK2
# Method: (§1) Every kinase activity measurement was conducted in duplicate.
# (§2) Specifically, in these assays, a positively charged substrate is phosphorylated with a radiolabeled phosphate group from an ATP if the kinase is not inhibited by an inhibitor peptide. The positively charged substrate then is attracted to a negatively charged filter membrane, quantified with a scintillation counter, and compared to a 100% activity control.
# (§3) In addition to determining the IC50 of the compound, the specificity of MK2 inhibitory peptides was assessed by examining activities of all 266 human kinases available for testing in the Millipore kinase profiling service (Table 1).
# MAPKAP-K3 (h) = MAPKAP-K3 (h) (Homo sapiens, UniProt Q16644); assay: Kinase Profiling Assay; type: biochemical; conditions: read-out: inhibition of kinase activity of MK3
# Method: as §1, §2, §3
# TrkB (h) = TrkB (h) (Homo sapiens, UniProt Q16620); assay: Kinase Profiling Assay; type: biochemical; conditions: read-out: inhibition of kinase activity of TrkB
# Method: as §1, §2, §3
# p70S6K (h) = biological target: T1, p70S6K (h) (Homo sapiens, UniProt P23443); assay: Kinase Profiling Assay; type: biochemical
# T1 construct: purchased Millipore
# Method: as §1, §2, §3
# splenic T cells = assay: Autologous mixed lymphocyte reaction, splenic T cells of bleomycin mice; type: in vivo, C57-BL/6 mice
# Text: Recent studies highlighted a key role for T lymphocytes in bleomycin-induced fibrosis (Wilson, M. et al., The Journal of Experimental Medicine, 207(3): 535-552, 2010). […] Specifically, the ability of C57BL/6 purified antigen-presenting cells to induce proliferation in C57BL/6 T lymphocytes was examined in the assay.
# C57-BL/6 mice were subjected to bleomycin injury at day 0. […] Splenic T cells were isolated and cultured alone or in the presence of autologous antigen presenting cells (APCs from C57-BL/6 mice) or stimulated with antibodies against CD3 (α-CD3) for 48 h. The cells then were radiolabeled with […] thymidine for 16 h and assessed for proliferation rates.
# [3] = test system: bleomycin-induced lung fibrosis; assay: Bleomycin mouse model of pulmonary fibrosis (treatment model); type: in vivo, C57BL/6 mice; conditions: for collagen deposition (hydroxyproline assay, whole left lung): day 28 post bleomycin; for lung scarring, histology (H&E and Masson's blue trichrome): daily day 14 to 28 post bleomycin
# Method: (§4) A mouse model of pulmonary fibrosis was generated by administering 0.025 U of bleomycin/PBS intratracheally to C57BL/6 mice. […] At 21 day post bleomycin delivery (for prevention model) or 28 post bleomycin delivery (for treatment model), groups of mice were sacrificed with a sodium pentobarbital injection (120 mg/kg) and the chest cavity was opened. The right mainstem bronchus was ligated and the right lung was removed. The trachea was cannulated and the left lung was perfused with 4% formaldehyde at 21 cm H2O pressure. The tissue blocks then were embedded in paraffin, and […] sections were prepared for staining. Sections from each animal were stained with hematoxylin and eosin (H&E) to visualize cells or with Masson's Trichrome staining to highlight collagen deposition. […] Stained sections were mounted onto a labeled glass slide with organic mounting medium.
# The classic bleomycin model, as depicted in FIG. 10, has been used widely in the literature in the pre-fibrotic stage to test efficacy of any intervention.
# More specifically, fibrotic loci in the lungs were induced by delivering intratracheally about 0.025 U of bleomycin (dissolved in PBS) to C57BL/6 mice. […] Mice were sacrificed with a sodium pentobarbital injection (120 mg/kg) and the chest cavity was opened. The right mainstem bronchus was ligated and the right lung is removed. The trachea was cannulated and the left lung was perfused with 4% formaldehyde at 21 cm H2O pressure. The tissue blocks then were embedded in paraffin, and […] sections were prepared, and stained with hematoxylin and eosin (H&E; for pathological examination) or Masson's Trichrome (for collagen staining)
# Next, collagen deposition was determined quantitatively by using the standard hydroxyproline assay with whole left lung. Total collagen (soluble and insoluble) deposition was assessed by analyzing hydroxyproline concentrations in murine lungs day 28 post bleomycin injury.
# [4] = test system: human fetal lung fibroblasts (IMR-90), α-SMA; assay: TGF-β-induced myofibroblast activation, α-SMA immunoblot; type: cell-based; conditions: 1 h pre-treatment, then TGF-β1 (2 ng/ml) 48 h
# Text: Cell lysates were immunoblotted against antibodies for α-SMA (a marker for myofibroblast activation) and GAPDH (loading control).
# TNF-α = assay: Plasma cytokine level, bleomycin treatment model; type: in vivo, mouse; conditions: 24 hours after final administration
# [5] = test system: bleomycin-induced lung fibrosis; assay: Bleomycin mouse model of pulmonary fibrosis (prevention model); type: in vivo, C57BL/6 mice; conditions: for collagen accumulation (Masson's Trichrome staining) / fibrotic loci formation / lung fibrosis (H&E staining): daily day 7 to 21 post bleomycin
# Method: as §4
# Briefly, fibrotic loci in the lungs of the mice were induced by delivering intratracheally about 0.025 U of bleomycin (dissolved in PBS) to C57BL/6 mice. […] Briefly, mice were sacrificed with a sodium pentobarbital injection (120 mg/kg) and the chest cavity was opened. The right mainstem bronchus was ligated and the right lung was removed. The trachea was cannulated and the left lung was perfused with 4% formaldehyde at 21 cm H2O pressure. The tissue blocks then were embedded in paraffin, and […] sections were prepared, and stained with hematoxylin and eosin (H&E; for pathological examination) or Masson's Trichrome (for collagen staining)
# Next, total collagen levels in the lungs of the bleomycin-injured mice (FIG. 12) were analyzed quantitatively by computing a constant conversion factor (7.5) for collagen from hydroxyproline concentrations (Neuman R. and Logan M, J Biol Chem., 186(2):549-56, 1950, incorporated by reference).
# Next, the effect of increasing doses of MK2 peptide inhibitors on collagen deposition was examined in vivo using the bleomycin mouse model of idiopathic pulmonary fibrosis (prevention model). Briefly, C57-BL/6 mice were subjected to bleomycin injury at day 0.
# [6] = test system: human fetal lung fibroblasts (IMR-90), fibronectin; assay: TGF-β-mediated fibronectin expression; type: cell-based; conditions: 1 h pre-treatment, then TGF-β1 (2 ng/ml) 72 h
# Method: Fibronection was measured as secreted fragments in the conditioned media. Equal amounts (14 μg) of total proteins from the conditioned media were loaded in each lane.
# SGK (h) = assay: Kinase Profiling Assay; type: biochemical, human; conditions: 100 μM
# Method: as §1, §2, §3
# MLCK (h) = assay: Kinase Profiling Assay; type: biochemical, human; conditions: 100 μM
# Method: as §1, §2, §3
# Sequence of MAPKAP-K3 (h) (Q16644 whole entry): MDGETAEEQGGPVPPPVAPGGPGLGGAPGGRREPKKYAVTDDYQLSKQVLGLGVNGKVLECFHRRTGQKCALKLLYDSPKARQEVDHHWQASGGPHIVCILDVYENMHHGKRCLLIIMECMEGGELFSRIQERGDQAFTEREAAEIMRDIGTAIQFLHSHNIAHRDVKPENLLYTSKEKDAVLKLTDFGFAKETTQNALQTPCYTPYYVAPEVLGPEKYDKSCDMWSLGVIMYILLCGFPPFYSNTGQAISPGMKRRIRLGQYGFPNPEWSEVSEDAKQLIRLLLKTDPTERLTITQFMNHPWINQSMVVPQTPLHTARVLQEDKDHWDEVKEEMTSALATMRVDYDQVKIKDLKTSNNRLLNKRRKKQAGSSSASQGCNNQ
# Sequence of TrkB (h) (Q16620 32-822): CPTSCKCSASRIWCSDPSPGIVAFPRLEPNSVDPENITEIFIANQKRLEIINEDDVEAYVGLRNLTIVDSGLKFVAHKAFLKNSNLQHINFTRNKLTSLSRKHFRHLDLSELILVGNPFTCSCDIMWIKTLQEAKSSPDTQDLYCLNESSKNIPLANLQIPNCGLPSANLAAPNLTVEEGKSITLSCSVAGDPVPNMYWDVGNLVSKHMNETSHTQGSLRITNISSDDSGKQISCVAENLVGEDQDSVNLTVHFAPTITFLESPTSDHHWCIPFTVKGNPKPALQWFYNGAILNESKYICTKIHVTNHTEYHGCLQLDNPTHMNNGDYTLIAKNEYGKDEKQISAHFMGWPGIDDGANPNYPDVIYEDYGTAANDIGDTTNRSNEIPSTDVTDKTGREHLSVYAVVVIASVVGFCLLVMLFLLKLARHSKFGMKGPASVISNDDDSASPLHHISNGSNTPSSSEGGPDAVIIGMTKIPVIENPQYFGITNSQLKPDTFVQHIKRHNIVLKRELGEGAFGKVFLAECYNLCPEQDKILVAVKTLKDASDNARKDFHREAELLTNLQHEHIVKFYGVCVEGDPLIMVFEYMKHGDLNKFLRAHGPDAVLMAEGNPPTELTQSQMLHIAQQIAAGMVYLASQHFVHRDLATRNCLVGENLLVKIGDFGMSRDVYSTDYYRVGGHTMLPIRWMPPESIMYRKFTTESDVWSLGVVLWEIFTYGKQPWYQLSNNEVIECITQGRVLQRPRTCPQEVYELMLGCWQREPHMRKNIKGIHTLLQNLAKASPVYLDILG
# Sequence of MAPKAP-K2 (h) (P49137 whole entry): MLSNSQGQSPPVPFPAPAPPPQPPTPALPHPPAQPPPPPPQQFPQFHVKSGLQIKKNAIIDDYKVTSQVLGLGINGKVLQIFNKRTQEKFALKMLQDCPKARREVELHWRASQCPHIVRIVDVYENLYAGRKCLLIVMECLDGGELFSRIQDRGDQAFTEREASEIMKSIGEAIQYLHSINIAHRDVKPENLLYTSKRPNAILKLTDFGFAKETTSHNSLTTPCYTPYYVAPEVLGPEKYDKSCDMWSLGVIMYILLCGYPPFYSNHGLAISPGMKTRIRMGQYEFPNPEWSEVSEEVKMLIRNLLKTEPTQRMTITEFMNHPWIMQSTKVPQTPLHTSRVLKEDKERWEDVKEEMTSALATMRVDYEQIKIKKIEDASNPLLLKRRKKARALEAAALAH
# T1 sequence (P23443 whole entry): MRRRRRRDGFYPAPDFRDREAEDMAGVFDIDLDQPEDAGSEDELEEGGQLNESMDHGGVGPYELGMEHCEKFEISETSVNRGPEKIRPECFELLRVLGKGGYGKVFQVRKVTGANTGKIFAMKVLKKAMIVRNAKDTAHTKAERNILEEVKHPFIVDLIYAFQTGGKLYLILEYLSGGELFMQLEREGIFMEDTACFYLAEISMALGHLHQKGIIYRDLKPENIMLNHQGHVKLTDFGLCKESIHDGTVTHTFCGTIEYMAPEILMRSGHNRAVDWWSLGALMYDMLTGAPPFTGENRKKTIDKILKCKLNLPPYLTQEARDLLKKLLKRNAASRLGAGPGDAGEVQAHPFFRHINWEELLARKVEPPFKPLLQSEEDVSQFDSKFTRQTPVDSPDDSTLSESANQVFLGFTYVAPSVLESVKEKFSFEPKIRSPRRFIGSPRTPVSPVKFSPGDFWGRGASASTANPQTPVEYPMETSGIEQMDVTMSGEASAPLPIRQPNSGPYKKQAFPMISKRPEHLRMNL
sequence,measurement,setting,value
YARAAARQARAKALARQLGVAA [MMI-0100],plasma level of IL-6,IL-6; intraperitoneal,significantly reduced
same,plasma level of IL-6,IL-6; nebulized,significantly reduced
same,phospho-Thr^334-MAPKAPK2 staining (activated form of MK2) in lung,[1]; 50 μg/kg daily intraperitoneal,decreased phospho-Thr^334-MAPKAPK2 staining
same,phospho-Thr^334-MAPKAPK2 staining (activated form of MK2) in lung,[1]; 50 μg/kg daily nebulized,as effective as conventional systemic injections in attenuating MK2 activation; also recorded: decreased phospho-Thr^334-MAPKAPK2 staining
same,level of α-SMA in bleomycin-injured lungs,[2]; 50 μg/kg/day intraperitoneal,inhibits myofibroblast alpha-smooth muscle actin (α-SMA) activation; also recorded: significantly attenuated
same,level of α-SMA in bleomycin-injured lungs,[2]; 50 μg/kg/day nebulizer,inhibits myofibroblast alpha-smooth muscle actin (α-SMA) activation; also recorded: significantly attenuated
same,inhibition at 100 µM,MAPKAP-K2 (h),> 65%
same,inhibition at 100 µM,MAPKAP-K3 (h),> 65%
same,inhibition at 100 µM,TrkB (h),> 65%
same,activity at 100 µM,p70S6K (h),89%
same,toxicity (proliferative response of splenic T cells to α-CD3),"splenic T cells; 50 μg/kg/day, day 7 to 21",no toxicity
same,systemic distribution,"splenic T cells; nebulized, inferred from lack of splenic T cell response",little systemic distribution
same,"collagen deposition (hydroxyproline assay, whole left lung)",[3]; 50 μg/kg/day IP from day 14,arrests significant collagen deposition; also recorded: significantly arrested further progression of collagen deposition
same,"collagen deposition (hydroxyproline assay, whole left lung)",[3]; 50 μg/kg/day nebulizer from day 14,arrests significant collagen deposition; also recorded: significantly arrested further progression of collagen deposition
same,"lung scarring, histology (H&E and Masson's blue trichrome)",[3]; intraperitoneal,ameliorates bleomycin-induced lung fibrosis; also recorded: rescued
same,"lung scarring, histology (H&E and Masson's blue trichrome)",[3]; nebulized,ameliorates bleomycin-induced lung fibrosis; also recorded: rescued
same,protein level of α-smooth muscle actin (α-SMA),[4],effectively prevented myofibroblast activation
same,plasma level of TNF-α,TNF-α; intraperitoneal,significantly reduced
same,plasma level of TNF-α,TNF-α; nebulized,significantly reduced
same,"collagen levels in the lung (Masson's blue trichrome staining), dose response","[5]; 25, 50 or 75 μg/kg daily IP, day 7 through day 21",prevents fibrosis due to bleomycin injury in a dose-dependent manner; also recorded: decrease in collagen levels
same,collagen accumulation (Masson's Trichrome staining),[5]; intraperitoneal,reduced collagen accumulation
same,fibrotic loci formation / lung fibrosis (H&E staining),[5]; intraperitoneal,protects against bleomycin-induced lung fibrosis; also recorded: significantly reduced development of fibrotic loci formation
same,collagen accumulation (Masson's Trichrome staining),[5]; nebulization,reduced collagen accumulation
same,fibrotic loci formation / lung fibrosis (H&E staining),[5]; nebulization,protects against bleomycin-induced lung fibrosis; also recorded: significantly reduced development of fibrotic loci formation
same,protein level of fibronectin (secreted fragments in conditioned media),[6],effectively prevented myofibroblast activation
same,% activity,SGK (h),128%
same,% activity,MLCK (h),85%
